For experiment [1], the target named is T1, 3',5'-cyclic-AMP phosphodiesterase 4A (Homo sapiens, UniProt P27815). The experiment can be described thus: Inhibition of PDE4A with respect to increase in cAMP concentration.
The target in experiment [2] is 3',5'-cyclic-AMP phosphodiesterase 4B (Homo sapiens, UniProt Q07343). The experiment can be described thus: Inhibition of PDE4B.
In experiment [3] the target is 3',5'-cyclic-AMP phosphodiesterase 4C (Homo sapiens, UniProt Q08493). The experiment can be described thus: Inhibition of PDE4C.
The target of experiment [4] is T1, 3',5'-cyclic-AMP phosphodiesterase 4A. The experiment can be described thus: Inhibition of PDE4A.

T1 sequence (P27815 whole entry): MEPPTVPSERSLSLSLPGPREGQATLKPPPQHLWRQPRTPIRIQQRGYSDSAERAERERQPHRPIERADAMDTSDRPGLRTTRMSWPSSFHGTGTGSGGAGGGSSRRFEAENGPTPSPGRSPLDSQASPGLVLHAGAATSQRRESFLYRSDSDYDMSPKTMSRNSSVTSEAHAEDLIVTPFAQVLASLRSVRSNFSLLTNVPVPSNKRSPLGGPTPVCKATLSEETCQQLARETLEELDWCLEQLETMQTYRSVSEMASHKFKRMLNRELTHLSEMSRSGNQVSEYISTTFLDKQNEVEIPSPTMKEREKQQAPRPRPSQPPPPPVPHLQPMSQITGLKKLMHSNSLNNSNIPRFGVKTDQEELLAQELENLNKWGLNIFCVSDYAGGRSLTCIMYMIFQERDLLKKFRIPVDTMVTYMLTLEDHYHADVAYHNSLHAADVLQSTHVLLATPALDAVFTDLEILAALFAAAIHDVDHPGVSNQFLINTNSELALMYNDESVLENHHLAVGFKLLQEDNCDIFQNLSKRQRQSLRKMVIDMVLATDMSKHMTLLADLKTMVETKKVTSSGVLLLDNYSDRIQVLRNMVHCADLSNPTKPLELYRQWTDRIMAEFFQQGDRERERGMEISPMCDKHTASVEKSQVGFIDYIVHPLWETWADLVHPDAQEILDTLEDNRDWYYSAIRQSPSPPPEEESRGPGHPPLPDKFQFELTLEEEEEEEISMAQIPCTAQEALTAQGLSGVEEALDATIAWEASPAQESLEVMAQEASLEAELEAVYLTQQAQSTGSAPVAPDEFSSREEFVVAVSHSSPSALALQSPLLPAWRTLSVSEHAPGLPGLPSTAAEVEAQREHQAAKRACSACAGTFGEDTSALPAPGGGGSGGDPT
Chain of 3',5'-cyclic-AMP phosphodiesterase 4C (Q08493 whole entry): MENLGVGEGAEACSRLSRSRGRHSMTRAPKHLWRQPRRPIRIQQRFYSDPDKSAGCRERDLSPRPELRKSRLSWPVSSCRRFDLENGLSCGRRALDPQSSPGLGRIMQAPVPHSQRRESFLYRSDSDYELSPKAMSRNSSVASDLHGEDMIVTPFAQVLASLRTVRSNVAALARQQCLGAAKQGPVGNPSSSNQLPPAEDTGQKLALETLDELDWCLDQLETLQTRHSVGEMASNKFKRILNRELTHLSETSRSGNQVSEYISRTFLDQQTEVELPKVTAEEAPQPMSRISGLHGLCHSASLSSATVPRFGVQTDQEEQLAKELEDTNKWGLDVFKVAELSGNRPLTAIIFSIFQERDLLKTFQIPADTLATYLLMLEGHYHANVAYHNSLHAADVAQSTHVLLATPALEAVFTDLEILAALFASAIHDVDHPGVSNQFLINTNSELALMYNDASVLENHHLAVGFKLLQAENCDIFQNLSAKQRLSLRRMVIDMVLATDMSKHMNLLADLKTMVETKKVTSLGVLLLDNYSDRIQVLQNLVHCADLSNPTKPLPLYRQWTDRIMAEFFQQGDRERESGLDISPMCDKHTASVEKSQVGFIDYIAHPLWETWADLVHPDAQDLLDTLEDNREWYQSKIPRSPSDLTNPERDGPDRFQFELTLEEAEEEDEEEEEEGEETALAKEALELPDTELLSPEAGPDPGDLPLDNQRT
Chain of 3',5'-cyclic-AMP phosphodiesterase 4B (Q07343 whole entry): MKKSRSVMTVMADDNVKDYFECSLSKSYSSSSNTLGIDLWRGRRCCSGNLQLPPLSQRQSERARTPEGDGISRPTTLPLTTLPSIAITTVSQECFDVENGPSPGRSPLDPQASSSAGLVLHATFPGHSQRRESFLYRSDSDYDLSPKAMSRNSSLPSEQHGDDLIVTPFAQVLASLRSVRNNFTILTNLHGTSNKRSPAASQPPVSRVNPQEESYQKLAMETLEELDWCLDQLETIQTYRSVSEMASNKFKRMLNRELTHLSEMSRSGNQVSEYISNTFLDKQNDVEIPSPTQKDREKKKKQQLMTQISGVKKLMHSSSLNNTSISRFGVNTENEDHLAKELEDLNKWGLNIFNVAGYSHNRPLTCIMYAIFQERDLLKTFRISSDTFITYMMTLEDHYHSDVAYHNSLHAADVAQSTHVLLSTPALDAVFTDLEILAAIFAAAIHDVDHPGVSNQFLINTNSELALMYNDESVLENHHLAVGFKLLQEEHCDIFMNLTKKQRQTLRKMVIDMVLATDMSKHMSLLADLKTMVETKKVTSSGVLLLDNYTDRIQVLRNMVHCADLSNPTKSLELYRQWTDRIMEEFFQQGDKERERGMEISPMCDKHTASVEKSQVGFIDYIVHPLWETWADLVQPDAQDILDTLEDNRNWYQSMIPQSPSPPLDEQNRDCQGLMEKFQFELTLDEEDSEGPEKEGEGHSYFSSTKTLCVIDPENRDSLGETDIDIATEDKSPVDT

Take `[O-][n+]1cccc(C[C@@H](c2ccc(OC(F)F)c(OC3CC3)c2)c2cnc(C(O)(C(F)(F)F)C(F)(F)F)s2)c1`: affinity in experiment [1] was put at a Ki of 0.43 nM. In other words, the sub-nanomolar range.
As for `[O-][n+]1cccc(C[C@H](c2ccc(OC(F)F)c(OC3CC3)c2)c2cnc(C(O)(C(F)(F)F)C(F)(F)F)s2)c1`, the IC50 (usually the concentration at which inhibition is half-maximal) in experiment [2] came out at 40 nM; in experiment [3] it was 135 nM; in experiment [4], 56 nM.

The record behind these values is ChEMBL document CHEMBL1138159, “Enantiomer discrimination illustrated by the high resolution crystal structures of type 4 phosphodiesterase” (J Med Chem, 2006).
